Measured values: ChEMBL document CHEMBL5247624, “N-sulfonylpiperidinedispiro-1,2,4,5-tetraoxanes exhibit potent in vitro antiplasmodial activity and in vivo efficacy in mice infected with P. berghei ANKA” (Eur J Med Chem, 2022)
The source made the active and inactive calls. The rule behind the calls is not given here.

Legend:
Huh-7 = assay: Cytotoxicity against human Huh-7 cells assessed as reduction in cell viability incubated for 72 hrs by MTT assay; type: functional
Plasmodium falciparum [1] = assay: Antiplasmodial activity against erythrocytic stage of chloroquine-sensitive Plasmodium falciparum 3D7 assessed as inhibition of parasite growth incubated for 3 days by HRP2-ELISA assay; type: functional, organism-based; settings: 3D7, 72 h
Plasmodium berghei [2] = assay: Antiplasmodial activity against Plasmodium berghei ANKA infected in Swiss albino mouse assessed as parasite recrudescence by measuring parasitemia at 60 mg/kg/day,ip qd administrated for 4 subsequent days by Giemsa staining assay; type: functional
Plasmodium falciparum [3] = assay: Antiplasmodial activity against erythrocytic stage of chloroquine-sensitive Plasmodium falciparum 3D7 infected in human RBC assessed as increase in intracellular ROS level by measuring green fluorescence at 10 uM incubated for 3 hrs by H2DCFDA probe based fluorescence microscopic analysis; type: functional, organism-based; settings: Erythrocyte
Plasmodium berghei [4] = assay: Antiplasmodial activity against Plasmodium berghei ANKA infected in Swiss albino mouse assessed as partial cure by measuring parasitemia at 60 mg/kg/day,ip qd measured after 48 hrs post administration by Giemsa staining assay; type: functional, organism-based
Plasmodium falciparum [5] = assay: Antiplasmodial activity against erythrocytic stage of chloroquine-sensitive Plasmodium falciparum 3D7 infected in human RBC assessed as increase in intracellular ROS level at 10 uM incubated for 3 hrs by H2DCFDA probe based flow cytometry; type: functional, organism-based; settings: Erythrocyte
Plasmodium berghei [6] = assay: Antiplasmodial activity against Plasmodium berghei ANKA infected in Swiss albino mouse assessed as reduction of parasitaemia at 60 mg/kg/day,ip qd measured at 24 hrs post administration by Giemsa staining assay relative to control; type: functional; set-up: scale not given: the % may be the effect or the level left
Plasmodium berghei [7] = assay: Antiplasmodial activity against Plasmodium berghei ANKA infected in Swiss albino mouse assessed as increase in parasite clearance rate at 60 mg/kg/day,ip qd administrated for 5 subsequent days by Giemsa staining assay; type: functional, organism-based
Plasmodium berghei [8] = assay: Antiplasmodial activity against Plasmodium berghei ANKA infected in Swiss albino mouse assessed as increase in animal survival rate at 60 mg/kg/day,ip qd administrated for 5 subsequent days; type: functional, organism-based
Plasmodium berghei [9] = assay: Antiplasmodial activity against Plasmodium berghei ANKA infected in Swiss albino mouse assessed as reduction of parasitaemia at 60 mg/kg/day,ip qd measured after 72 hrs post administration by Giemsa staining assay relative to control; type: functional; set-up: scale not given: the % may be the effect or the level left
Plasmodium berghei [10] = assay: Antiplasmodial activity against Plasmodium berghei ANKA infected in Swiss albino mouse assessed as reduction of parasitaemia at 60 mg/kg/day,ip qd measured after 72 hrs post administration by Giemsa staining assay; type: functional, organism-based
Plasmodium falciparum [11] = assay: Antiplasmodial activity against Plasmodium falciparum W2 infected in human RBC assessed as inhibition of parasite growth incubated for 48 hrs by flow cytometry; type: functional, organism-based; settings: W2, Erythrocyte
Plasmodium berghei [12] = assay: Antiplasmodial activity against Plasmodium berghei infected in Swiss Webster mouse assessed as reduction of parasitaemia by measuring partial cure at 2 mg/kg/day,po administrated for 4 days; type: functional; set-up: scale not given: the % may be the effect or the level left; settings: time 4 day
Plasmodium berghei [13] = assay: Antiplasmodial activity against Plasmodium berghei ANKA infected in Swiss albino mouse assessed as reduction of parasitaemia at 60 mg/kg/day,ip qd administrated for 5 subsequent days by Giemsa staining assay relative to control; type: functional; set-up: scale not given: the % may be the effect or the level left

SMILES	CC50 (Huh-7) [µg/mL]	IC50 (Plasmodium falciparum [1]) [nM]	other results
O=S(=O)(CCCCl)N1CCC2(CC1)OOC1(CCCCC1)OO2	> 100	40.6	
O=S(=O)(c1ccc(Br)cc1F)N1CCC2(CC1)OOC1(CCCCCC1)OO2	> 100	10.4	Activity (Plasmodium berghei [2]): >0.1%; Activity (Plasmodium falciparum [3]): Active; Activity (Plasmodium berghei [4]): inactive; Activity (Plasmodium falciparum [5]): Active
Cc1ccc(S(=O)(=O)N2CCC3(CC2)OOC2(CCCCCC2)OO3)cc1	> 100	55.3	
Cc1ccc(S(=O)(=O)N2CCC3(CC2)OOC2(CCCCC2)OO3)cc1	> 100	40.2	
CS(=O)(=O)N1CCC2(CC1)OOC1(CCCCC1)OO2	> 100	16.3	
CCCCS(=O)(=O)N1CCC2(CC1)OOC1(CCCC1)OO2	> 100	41.9	
CCCC1(C)OOC2(CCN(S(=O)(=O)CCC)CC2)OO1	> 100	10.9	Activity (Plasmodium berghei [2]): >0.1%; Activity (Plasmodium falciparum [3]): Active; Activity (Plasmodium berghei [4]): inactive; Activity (Plasmodium falciparum [5]): Active
CCCS(=O)(=O)N1CCC2(CC1)OOC(C)(C(C)C)OO2	> 100	21.4	
CCCS(=O)(=O)N1CCC2(CC1)OOC(C)(C1CC1)OO2	> 100	60.2	
CCS(=O)(=O)N1CCC2(CC1)OOC1(CCCCCC1)OO2	> 100	62.5	
C[C@H]1[C@@H](O)O[C@@H]2O[C@@]3(C)CC[C@H]4[C@H](C)CC[C@@H]1[C@@]24OO3 [ARTENIMOL]	> 100	0.7	
CCCS(=O)(=O)N1CCC2(CC1)OOC1(CCCC1)OO2	> 100	9450	
CCCCS(=O)(=O)N1CCC2(CC1)OOC1(CCCCCC1)OO2	> 100	13.8	
CS(=O)(=O)N1CCC2(CC1)OOC1(CCCCCC1)OO2	> 100	9.67	Activity (Plasmodium berghei [2]): >0.1%; Activity (Plasmodium falciparum [3]): Active; Activity (Plasmodium berghei [4]): inactive; Activity (Plasmodium falciparum [5]): Active
CCCS(=O)(=O)N1CCC2(CC1)OOC(C)(c1ccc(Cl)cc1)OO2	> 100	8360	
O=S(=O)(c1ccc(F)cc1)N1CCC2(CC1)OOC1(CCCC1)OO2	> 100	67	
O=S(=O)(c1ccc(F)cc1)N1CCC2(CC1)OOC1(CCCCC1)OO2	> 100	77.4	
CCCS(=O)(=O)N1CCC2(CC1)OOC1(CCCCCC1)OO2	> 100	4.7	Activity (Plasmodium berghei [2]): >0.1%; Activity (Plasmodium falciparum [3]): Active; Activity (Plasmodium berghei [4]): inactive; Activity (Plasmodium falciparum [5]): Active
O=S(=O)(Cc1ccccc1)N1CCC2(CC1)OOC1(CCCC1)OO2	> 100	20.6	
O=S(=O)(c1ccc(Br)cc1F)N1CCC2(CC1)OOC1(CCCC1)OO2	> 100	44.2	
COc1ccc(S(=O)(=O)N2CCC3(CC2)OOC2(CCCC2)OO3)cc1	> 100	25.3	
CCN(CC)CCCC(C)Nc1ccnc2cc(Cl)ccc12 (stereo not drawn) [CHLOROQUINE]	> 100	4.36	Activity (Plasmodium berghei [6]): 100%

SMILES	CC50 (Huh-7) [µg/mL]	IC50 (Plasmodium falciparum [1]) [nM]	other results
O=S(=O)(c1ccc(F)cc1)N1CCC2(CC1)OOC1(CCCCCC1)OO2	> 100	37.4	
CCCS(=O)(=O)N1CCC2(CC1)OOC1(CCCCC1)OO2	> 100	12.9	Activity (Plasmodium berghei [2]): >0.1%; Activity (Plasmodium falciparum [3]): Active; Activity (Plasmodium berghei [4]): inactive; Activity (Plasmodium falciparum [5]): Active
O=S(=O)(Cc1ccccc1)N1CCC2(CC1)OOC1(CCCCCC1)OO2	> 100	64.7	
C[C@H]1[C@H](OC(=O)CCC(=O)O)O[C@@H]2O[C@@]3(C)CC[C@H]4[C@H](C)CC[C@@H]1[C@@]24OO3 [ARTESUNATE]	> 100	3.3	
COc1ccc(S(=O)(=O)N2CCC3(CC2)OOC2(CCCCCC2)OO3)cc1	> 100	46.6	
O=S(=O)(CCCCl)N1CCC2(CC1)OOC1(CCCC1)OO2	> 100	8.43	Activity (Plasmodium berghei [2]): inactive; Activity (Plasmodium berghei [7]): Active; Activity (Plasmodium berghei [6]): <0.1%; Activity (Plasmodium falciparum [3]): Active; Activity (Plasmodium berghei [4]): Active; Activity (Plasmodium berghei [8]): Active; Activity (Plasmodium berghei [9]): 100%; Activity (Plasmodium falciparum [5]): Active; Activity (Plasmodium berghei [10]): Active
Cc1ccc(S(=O)(=O)N2CCC3(CC2)OOC2(CCCC2)OO3)cc1	> 100	24.2	
CCCS(=O)(=O)N1CCC2(CC1)OOC(C)(CC)OO2	> 100	23.3	
CS(=O)(=O)N1CCC2(CC1)OOC1(CCN(S(C)(=O)=O)CC1)OO2	> 100	39.6	
O=S(=O)(CCCCl)N1CCC2(CC1)OOC1(CCCCCC1)OO2	> 100	13	
O=S(=O)(Cc1ccccc1)N1CCC2(CC1)OOC1(CCCCC1)OO2	> 100	49.4	
CCS(=O)(=O)N1CCC2(CC1)OOC1(CCCC1)OO2	> 100	11.8	
CCCS(=O)(=O)N1CCC2(CC1)OOC(C)(c1ccccc1)OO2	> 100	129	
CC(C)(N)CNC(=O)O[C@@H]1CCC[C@]2(C1)OOC1(O2)C2CC3CC(C2)CC1C3 (stereo partly drawn)			EC50 (Plasmodium falciparum [11]): 1.8 nM; Activity (Plasmodium berghei [12]): 100%
CCCCS(=O)(=O)N1CCC2(CC1)OOC1(CCCCC1)OO2	> 100	57.2	
CCCS(=O)(=O)N1CCC2(CC1)OOC(C)(C)OO2	> 100	101	
CS(=O)(=O)N1CCC2(CC1)OOC1(CCCC1)OO2	> 100	41.9	
C1CCCC2(CC1)OOC1(CCCCCC1)OO2	> 100	39.4	
CCS(=O)(=O)N1CCC2(CC1)OOC1(CCCCC1)OO2	> 100	10.5	Activity (Plasmodium berghei [13]): 100%; Activity (Plasmodium berghei [2]): >0.1%; Activity (Plasmodium falciparum [3]): Active; Activity (Plasmodium berghei [4]): inactive; Activity (Plasmodium falciparum [5]): Active; Activity (Plasmodium berghei [10]): Active
O=S(=O)(c1ccc(Br)cc1F)N1CCC2(CC1)OOC1(CCCCC1)OO2	> 100	322	
COc1ccc(S(=O)(=O)N2CCC3(CC2)OOC2(CCCCC2)OO3)cc1	> 100	32.2	
C[C@@H]1CC[C@H]2[C@@H](C)C(=O)O[C@@H]3O[C@@]4(C)CC[C@@H]1[C@]32OO4 [ARTEMISININ]		4.74	
